These results are taken from patent US3974137A, “Process for the preparation of 1-[L-(-)-γ-amino-α-hydroxybutyryl]-kanamycin A (RD-1341A)” (priority 1974, dated 1976).

Values after ≈ are worked out from the molar mass of the structure shown. Values joined by “and” are separate entries in the source; they are usually repeats but may differ in a detail not shown here. Equal entries are not always repeated. Structures can show the parent of a compound that is named as a salt. Where two headings read alike, the source gives them in different places.

A short description of data set [1]: Hygroscopicity / water uptake on storage in air. Format: physicochemical.
Data set [2] has as its system Escherichia coli A-15119. Kind of data set: MIC, in vitro (Table 3). Format: cell-based. As to conditions: A15119, Mueller-Hinten agar, test number 1. From the text: (§1) ^a MIC =minimum inhibitory concentration (μg./ml.). Tests conducte
(§2) as described by Chisholm et al., (Antimicrob. Agents and
(§3) Chemotherapy-1969, p. 244, 1970) using Mueller-Hinten agar as the test

Data set [3] relates to Escherichia coli A-20520. Kind of data set: MIC, in vitro (Table 3). Format: cell-based.
Source text: as §1, §2, §3

In data set [4] the test system is Staphylococcus aureus A-9537. Kind of data set: MIC, in vitro (Table 3). Format: cell-based.
Source text: as §1, §2, §3

Data set [5] relates to Staphylococcus aureus A-9537. Kind of data set: CD50 in lethally infected mice. In kind it is in vivo, Staphylococcus aureus (infected mice). As to conditions: for ED50: Staphylococcus aureus, A9537, sc, mice, subcutaneous, × 2 treatments (1 and 4 hours post-infection), test number 1, read-out: CD50 (curative dose, 50%); for effectiveness in infected mice (words): kanamycin A-sensitive strain. The method, then: (§4) ^b CD50 =curative dose, 50% (mg./kg./treated × number of
(§5) treatments). Mice were treated subcutaneously at 1 and 4 hours
(§6) post-infection when 2 treatment were administered and at 0, 2, 4 and 6
(§7) hours post-infection when 4 treatment weree given. Other aspects of the
(§8) test were carried out as described by Price et al. (J. of Antibiotics

The subject of data set [6] is Escherichia coli A-15119. Kind of data set: CD50 in lethally infected mice. Format: in vivo, Escherichia coli (infected mice). As to conditions: for ED50: Escherichia coli, A15119, sc, mice, subcutaneous, × 2 treatments (1 and 4 hours post-infection), test number 1, read-out: CD50 (curative dose, 50%); for effectiveness in infected mice (words): kanamycin A-sensitive strain. The method, then:
as §4, §5, §6, §7, §8

The test system of data set [7] is Escherichia coli A-20520. The data set is described as follows: CD50 in lethally infected mice. Format: in vivo, Escherichia coli (infected mice). The settings on record: for ED50: Escherichia coli, A20520, sc, read-out: CD50 (curative dose, 50%); for effectiveness in infected mice (words): kanamycin-resistant strain. On the procedure:
as §4, §5, §6, §7, §8

Data set [8] can be described thus: Bioassay of column fractions (plate assays). In kind it is cell-based. As to conditions: pooled column fractions; BB-K8: average of 4 plate assays, ± standard deviation. From the text:
*Average of 4 plate assays, ± standard deviation.

The test system of a further data set is B. subtilis. Kind of data set: Relative potency, agar plate. Format: cell-based. As to conditions: standard: kanamycin A free base. The method, then: Compound IV, as recovered from this process, is identical with authentic product obtained by the method described in co-pending application, Ser. No. 221,378. M.p. 194° (dec.) [α]D^21 +85° (c=2, H2 O). […] (standard: kanamycin A free base).

In data set [9] the test system is gram-positive and gram-negative bacteria. Kind of data set: Antibacterial activity (MIC), overall comparison with kanamycin A. In kind it is cell-based. The settings on record: in words. An excerpt:
Illustrated below are two tables showing the minimal inhibitory concentrations (MIC's) of kanamycin A and compound IVa (BB-K8) against a variety of gram-positive and gram-negative bacteria as obtained by the Steers agar-dilution method (Table I) and the two-fold dilution method (Table 2). Mueller-Hinton Agar Medium was used in the study of Table 1 and Heart Infusion Broth was used in the study of Table 2.

Where [10] appears, read: mice, subcutaneous, × 4 treatments (0, 2, 4 and 6 hours post-infection), test number 2.

For `NCC[C@H](O)C(=O)N[C@@H]1C[C@H](N)[C@@H](O[C@H]2O[C@H](CN)[C@@H](O)[C@H](O)[C@H]2O)[C@H](O)[C@H]1O[C@H]1O[C@H](CO)[C@@H](O)[C@H](N)[C@H]1O` [BB-K8^. 2H2 SO4, Disulfate Salt of 1-[L-(-)-γ-amino-α-hydroxybutyryl]-kanamycin A], the “water content after storage in air” value in data set [1] (Karl Fisher, in air at room temperature for 18 hours) was 9.55% and 9.89%. Besides, in data set [1] (disulfate salt), the hygroscopicity entry was “hygroscopic but not deliquescent”.

For `NCC[C@H](O)C(=O)N[C@@H]1C[C@H](N)[C@@H](O[C@H]2O[C@H](CN)[C@@H](O)[C@H](O)[C@H]2O)[C@H](O)[C@H]1O[C@H]1O[C@H](CO)[C@@H](O)[C@H](N)[C@H]1O` [Compound IV, 1-[L-(-)-γ-amino-α-hydroxybutyryl]-kanamycin A], the MIC against Escherichia coli A-15119 [2] was determined as 2 µg/mL (≈ 3.42 µM); in the data set with Escherichia coli A-20520 [3] (A20520, Mueller-Hinten agar, test number 1, read-out: MIC), 2 µg/mL (≈ 3.42 µM); in data set [4] (A9537, Mueller-Hinten agar, test number 1, read-out: MIC) it was 1 µg/mL (≈ 1.71 µM). Moreover, the ED50 amounted to 2 mg/kg in data set [5]; 2 mg/kg in the data set with Escherichia coli A-15119 [6]; 66 mg/kg in the data set on Escherichia coli A-20520 [7] (mice, subcutaneous, × 2 treatments (1 and 4 hours post-infection), test number 1); 5 mg/kg in the data set with Escherichia coli A-20520 [7] (setting [10]). Besides, the “effectiveness in infected mice (words)” value in [5] is “equally effective”; in [5] (listed as compound IV) it was “slightly less active than kanamycin A”; in the data set with Escherichia coli A-15119 [6], “equally effective”; in the data set with Escherichia coli A-20520 [7] it was “marked protective action”. For the same compound, the “times more active in 4-treatment regimen rather than in 2-treatment one” value in the data set with Escherichia coli A-20520 [7] (mice, 4-treatment vs 2-treatment regimen) is “approximately 10 times”. In [8], the Bioassay is 786±101. For the same compound, the “Relative potency against B. subtilis” value in the data set with B. subtilis worked out at 960 µg/mg. Further, the “antibacterial activity compared with kanamycin A” value in data set [9] is “excellent antibacterial activity that appears superior to kanamycin A itself”; in data set [9] (listed as compound IV), “superior to kanamycin A in activity, particularly against kanamycin A resistant organisms”.

Consider `NCC1OC(OC2C(N)CC(N)C(OC3OC(CO)C(O)C(N)C3O)C2O)C(O)C(O)C1O` (centres unmarked) [Kanamycin A], for which the values for the MIC (against Escherichia coli A-15119 [2]; with Escherichia coli A-20520 [3] (A20520); in data set [4] (A9537)) were 4 µg/mL (≈ 8.26 µM), 125 µg/mL (≈ 258 µM) and 2 µg/mL (≈ 4.13 µM), respectively. For the same compound, the ED50 in data set [5] was 0.5 mg/kg; in the data set with Escherichia coli A-15119 [6], 4 mg/kg; with Escherichia coli A-20520 [7], 200 mg/kg. Moreover, the “effectiveness in infected mice (words)” value was “equally effective” in [5], “equally effective” in the data set on Escherichia coli A-15119 [6] and “not very effective in vivo” in the data set on Escherichia coli A-20520 [7]. Besides, in the data set on Escherichia coli A-20520 [7] (setting [10]), the “CD50 (curative dose, 50%)” value is listed as 200 mg./kg./treated × number of tr. Moreover, the Bioassay in data set [8] came to 809.

A word on the MIC: it is the smallest concentration in the dilution series that meets the test's criterion for growth inhibition.
